Test results: patent US9487470B2, “4-((substituted phenyl) difluoromethyl) phenoxy carboxylic acid derivative, and preparation method and uses thereof” (Zhejiang Hisun Pharmaceutical Co., Ltd., priority 2012, dated 2016)

Tests used:
[1] = test system: hyperlipoidemia model of Goldenhamsters (blood plasma TC, HDL-C, LDL-C); experiment: Pharmacological test group 2: effects on blood lipid levels of Goldenhamsters in hyperlipoidemia model; type: in vivo; conditions: for effect on HDL-C, in comparison with the results before administration (in words) / effect on LDL-C, in comparison with the results before administration (in words) / effect on TC, in comparison with the results before administration (in words): t test after vs before administration; for HDL-C, before administration / LDL-C, before administration / TC, before administration: baseline of the group before administration, high-lipid feed 2 weeks, 6 animals
Excerpt: (§1) Animals: 120 male Goldenhamsters, aged 8 weeks, body weight 80-100 g, provided by Vital River Laboratories, Beijing.
Kits: The kits for total cholesterol (TC) and high density lipoprotein cholesterol (HDL-C) were provided by SYSMEX, and the kits for low density lipoprotein cholesterol (LDL-C) were provided by Shanghai Kehua Bio-engineering Co., Ltd.
(§2) Apparatus: SYSMEX Automatic Biochemistry Analyzer, Bechman centrifuge, Setoris balance.
(§3) The animals were acclimatized and fed for 1 week, ad lib, light cycle was 10 h/14 h, and then feeds with high lipid content were fed to the animals (formulation: 0.3% cholesterol, 20% palm oil, and 79.7% basic feeds). The animals were fed for 2 weeks, and were fasted at 4:00 pm on the 14th day (fasted for 16 h). On the 15th day, the animals were anaesthetized with ethyl ether, weighted, and then 0.5 ml blood was collected from vena orbitalis posterior. The blood was anticoagulated with heparin, and was centrifugated at 5000 rpm for 10 min. The blood plasma was taken, and the levels of TC, HDL-C, and LDL-C in blood plasma were determined using automatic biochemistry analyzer.
(§4) During the administration, feeds with high lipid content were continuously fed to the animals. The animals were fed for 1 week, and were fasted at 4:00 pm on the 7th day. On the 8th day, the animals were anaesthetized with ethyl ether, weighted, and then 0.5 ml blood was collected from vena orbitalis posterior. The blood was anticoagulated with heparin, and was centrifugated at 5000 rpm for 10 min. The blood plasma was taken, and the levels of TC, HDL-C, and LDL-C in blood plasma were determined using automatic biochemistry analyzer.
(§5) The results were represented by x±s, and t test was employed for comparing the results obtained before and after administration.

[2] = Solubility in water (remark on the test drugs); type: physicochemical; conditions: formulated with 20% solutol
[3] = test system: hyperlipoidemia model of Goldenhamsters (blood plasma TC, TG, HDL-C, LDL-C); experiment: Pharmacodynamic test group 3: effects on blood lipid levels of Goldenhamsters in a hyperlipoidemia model; type: in vivo; conditions: for HDL-C, after administration / LDL-C, after administration / TC, after administration / TG, after administration: 40 mg/kg intragastric, 1 week, high-lipid feed continued, asterisks = P vs before administration; for HDL-C, after administration / LDL-C, after administration / TC, after administration / TG, after administration / HDL-C, before administration / LDL-C, before administration / TC, before administration / TG, before administration: blood plasma, x±s; for effect on HDL-C, in comparison with the results before administration (in words) / effect on LDL-C, in comparison with the results before administration (in words) / effect on TC, in comparison with the results before administration (in words) / effect on TG, in comparison with the results before administration (in words): t test after vs before administration; for HDL-C, before administration / LDL-C, before administration / TC, before administration / TG, before administration: baseline of the group before administration, high-lipid feed 2 weeks, 6 animals
Excerpt: as §1
Kits: The kits for total cholesterol (TC), triglyceride (TG), and high density lipoprotein cholesterol (HDL-C) were provided by SYSMEX, and the kits for low density lipoprotein cholesterol (LDL-C) were provided by Shanghai Kehua Bio-engineering Co., Ltd.
as §2
as §3, with “pm of” for “pm on”, “h). At” for “h). On”, “TC, TG,” for “TC,”
as §4, with “pm of” for “pm on”, “day. At” for “day. On”, “TC, TG,” for “TC,”
as §5

[4] = test system: hyperlipoidemia model of Goldenhamsters (blood plasma TC, TG, HDL-C, LDL-C); experiment: Pharmacological test group 1: effects on blood lipid levels of Goldenhamsters in a hyperlipoidemia model; type: in vivo; conditions: for HDL-C, after administration / LDL-C, after administration / TC, after administration / TG, after administration: 40 mg/kg intragastric, 1 week, high-lipid feed continued, asterisks = P vs before administration
Excerpt: Animals: 134 male Goldenhamsters, aged 8 weeks, body weight 80-100 g, provided by Vital River Laboratories, Beijing. […] Kits: The kits for total cholesterol (TC), triglyceride (TG), and high density lipoprotein cholesterol (HDL-C) were provided by SYSMEX, and the kits for low density lipoprotein cholesterol (LDL-C) were provided by Shanghai Kehua Bio-engineering Co., Ltd. Apparatus: SYSMEX Automatic Biochemistry Analyzer, Bechman centrifuge, Setoris balance. The animals were acclimatized and fed for 1 week, ad lib, light cycle was 10 h/14 h, and then feeds with high lipid content were fed to the animals (formulation: 0.3% cholesterol, 20% palm oil, and 79.7% basic feeds). The animals were fed for 10 days, and were fasted at 4:00 pm on the 10th day (fasted for 16 h). On the 11th day, the animals were anaesthetized with ethyl ether, weighted, and then 0.5 ml blood was collected from vena orbitalis posterior. The blood was anticoagulated with heparin, and was centrifugated at 5000 rpm for 10 min. The blood plasma was taken, and the levels of TC, TG, HDL-C, and LDL-C in blood plasma were determined using automatic biochemistry analyzer. The animals were acclimatized and fed for 1 week, ad lib, light cycle was 10 h/14 h, and then feeds with high lipid content were fed to the animals (formulation: 0.3% cholesterol, 20% palm oil, and 79.7% basic feeds). The animals were fed for 2 weeks, and were fasted at 4:00 pm on the […] (fasted for 16 h). On the 22nd day, the animals were anaesthetized with ethyl ether, weighted, and then 0.5 ml blood was collected from vena orbitalis posterior. The blood was anticoagulated with heparin, and was centrifugated at 5000 rpm for 10 min. The blood plasma was taken, and the levels of TC, TG, HDL-C, and LDL-C in blood plasma were determined using automatic biochemistry analyzer. […] During the administration, feeds with high lipid content were continuously fed to the animals. The animals were fed for 1 week, and were fasted at 4:00 pm on the 7th day. On the 8th day, the animals were anaesthetized with ethyl ether, weighted, and then 0.5 ml blood was collected from vena orbitalis posterior. The blood was anticoagulated with heparin, and was centrifugated at 5000 rpm for 10 min. The blood plasma was taken, and the levels of TC, TG, HDL-C, and LDL-C in blood plasma were determined using automatic biochemistry analyzer. The results were represented by x±s, and t test was employed for comparing the results obtained before and after administration.

[5] = background statement; cited from earlier work
[6] = 40 mg/kg intragastric, 1 week, high-lipid feed continued, blood plasma, x±s, asterisks = P vs before administration
[7] = 40 mg/kg, t test after vs before administration
[8] = baseline of the group before administration, high-lipid feed, blood plasma, x±s, 6 animals

| Molecule | LDL-C, after administration [1, 6] | effect on HDL-C, in comparison with the results before administration (in words) ([1]; 40 mg/kg) | effect on LDL-C, in comparison with the results before administration (in words) ([1]; 40 mg/kg) | effect on TC, in comparison with the results before administration (in words) ([1]; 40 mg/kg) | HDL-C, before administration ([1]; blood plasma, x±s) | LDL-C, before administration ([1]; blood plasma, x±s) | TC, before administration ([1]; blood plasma, x±s) | solubility in water [2] | blood lipid-regulating effects (conclusion from table 4) ([3]; 40 mg/kg) | HDL-C, after administration [3] | LDL-C, after administration [3] | TC, after administration [3] | TG, after administration [3] | effect on HDL-C, in comparison with the results before administration (in words) ([3]; 40 mg/kg) | effect on LDL-C, in comparison with the results before administration (in words) ([3]; 40 mg/kg) | effect on TC, in comparison with the results before administration (in words) ([3]; 40 mg/kg) | HDL-C, after administration ([4]; blood plasma, x±s) | LDL-C, after administration ([4]; blood plasma, x±s) | TG, after administration ([4]; blood plasma, x±s) | effect on TG, in comparison with the results before administration (in words) [4, 7] | other results |
| --- | --- | --- | --- | --- | --- | --- | --- | --- | --- | --- | --- | --- | --- | --- | --- | --- | --- | --- | --- | --- | --- |
| CC(C)OC(=O)C(C)(C)Oc1ccc(C(F)(F)c2ccc(Cl)cc2)cc1 [HS003-004, isopropyl 2-(4-((4-chlorophenyl)difluoromethyl)phenoxy)-2-methylpropionate] | 1.97 ± 0.66 | increases | significantly decreases | significantly decreases | 1.61 ± 0.21 | 3.26 ± 1.58 | 13.82 ± 2.69 | insoluble | excellent blood lipid-regulating effects | 3.16 ± 0.24 | 1.86 ± 0.78 | 9.49 ± 1.82 | 2.22 ± 1.61 | increases | significantly decreases | significantly decreases | 3.7 ± 0.31 | 1.27 ± 0.26 | 1.30 ± 0.23 | significantly decreases | blood lipid-regulating effects (conclusion from table 3) ([1]; 40 mg/kg): excellent blood lipid-regulating effects; HDL-C, after administration [1, 6]: 1.83 ± 0.18; TC, after administration [1, 6]: 9.86 ± 0.83; therapeutic effect compared with fenofibrate (conclusion from table 3) ([1]; 40 mg/kg, fenofibrate 40 mg/kg): outstanding therapeutic effects, and are superior to fenofibrate; therapeutic effect compared with fenofibrate (conclusion from table 4) ([3]; 40 mg/kg, fenofibrate 40 mg/kg): outstanding therapeutic effects, and are superior to fenofibrate; effect on TG, in comparison with the results before administration (in words) ([3]; 40 mg/kg): significantly decreases; HDL-C, before administration [3]: 2.54 ± 0.22; LDL-C, before administration [3]: 3.54 ± 0.71; TC, before administration [3]: 12.68 ± 1.8; TG, before administration [3]: 3.94 ± 1.07; regulating effects on the levels of blood lipid (conclusion from table 2) ([4]; 40 mg/kg): tend to the effects of significantly decreasing TG, TC, and LDL-C; TC, after administration ([4]; blood plasma, x±s): 9.16 ± 1.22; effect on HDL-C, in comparison with the results before administration (in words) [4, 7]: increases; effect on TC, in comparison with the results before administration (in words) [4, 7]: significantly decreases |
| fenofibrate [reference compound] | 2.45 ± 0.8 | increases | significantly decrease | significantly decrease | 1.46 ± 0.29 | 4.24 ± 1.51 | 13.74 ± 2.71 | – | – | – | – | – | – | – | – | – | 4.11 ± 0.15 | 1.15 ± 0.3 | 1.13 ± 0.47 | significantly decreases | adverse effects to gastrointestinal tract [5]: significant adverse effects to gastrointestinal tract; effect on HDL-C, in comparison with the results before administration (in words) [4, 7]: increases; HDL-C, before administration [4, 8]: 3.16 ± 0.24; LDL-C, before administration [4, 8]: 1.35 ± 0.25; TG, before administration [4, 8]: 2.39 ± 1 |
| CC(C)OC(=O)C(C)(C)Oc1ccc(C(F)(F)c2ccccc2)cc1 [HS003-008, Isopropyl 2-(4-(phenyldifluoromethyl)phenoxy)-2-methylpropionate] | – | – | – | – | – | – | – | insoluble | excellent blood lipid-regulating effects | 3.4 ± 0.11 | 2.11 ± 0.89 | 10.84 ± 1.83 | 2.49 ± 0.99 | increase | significantly decrease | significantly decrease | 3.46 ± 0.26 | 1.0 ± 0.45 | 1.22 ± 0.84 | significantly decreases | effect on TG, in comparison with the results before administration (in words) ([3]; 40 mg/kg): significantly decrease; HDL-C, before administration [3]: 2.86 ± 0.14; LDL-C, before administration [3]: 3.18 ± 0.81; TC, before administration [3]: 12.85 ± 2; TG, before administration [3]: 3.93 ± 1.09; regulating effects on the levels of blood lipid (conclusion from table 2) ([4]; 40 mg/kg): tend to the effects of significantly decreasing TG, TC, and LDL-C; TC, after administration ([4]; blood plasma, x±s): 9.85 ± 1.48; effect on LDL-C, in comparison with the results before administration (in words) [4, 7]: significantly decreases |
